In one experiment the target is CDK6/Cyclin D3 (Homo sapiens, UniProt Q00534). Briefly: CDK6/Cyclin D3 kinase inhibition TR-FRET assay. In kind it is biochemical. The conditions noted are these: 1 mM ATP, 0.15 μM Rb (Ser780)-biotin substrate, read-out: CDK6D3 IC50. Here is the method:
(§1) Compounds disclosed herein were tested for inhibition of CDK4/Cyclin D1 or CDK6/Cyclin D3 kinase in an assay based on the time-resolved fluorescence-resonance energy transfer (TR-FRET) methodology. The assay was carried out in 384-well low volume black plates in a reaction mixture containing CDK4/Cyclin D1 or CDK6/Cyclin D3, 1 mM ATP, 0.15 μM Rb (Ser780)-biotin substrate and 0-10 μM compound in buffer containing 50 mM HEPES pH7.0, 0.02% NaN3, 0.01% BSA, 0.1 mM Orthovanadate, 50 mM MgCl2, 1 mM DTT and 0.005% Tween-20. The kinase was incubated with compound for 60 minutes at room temperature and the reaction was initiated by the addition of ATP and Rb (Ser780)-biotin substrate. After reaction at room temperature for 120 minutes, an equal volume of stop/detection solution was added according to the manufacture's instruction (Cisbio Bioassays). The stop/detection solution contained Streptavidin-XL665 and Anti-pRb (Ser780) mAb-Eu Cryptate in Detection buffer (Cisbio Bioassays). Plates were incubated at room temperature for 60 minutes, and the TR-FRET signals (ex337 nm, em665 nm/620 nm) were recorded on a PHERAstar FSX plate reader (BMG Labtech). The inhibition percentage of CDK4/Cyclin D1 or CDK6/Cyclin D3 kinase activity in presence of increasing concentrations of compounds was calculated based on the ratio of fluorescence at 665 nm to that at 620 nm. The IC50 for each compound was derived from fitting the data to the four-parameter logistic equation by Dotmatics.
For orientation: TR-FRET usually uses a lanthanide donor and a delayed reading to cut background.

In a further experiment the target is CDK4/Cyclin D1 (Homo sapiens, UniProt P11802). Put plainly: CDK4/Cyclin D1 kinase inhibition TR-FRET assay. The experiment is classed as biochemical. The conditions noted are these: 1 mM ATP, 0.15 μM Rb (Ser780)-biotin substrate, read-out: CDK4D1 IC50. Here is the method:
as §1

CDK6/Cyclin D3, sequence (Q00534 whole entry): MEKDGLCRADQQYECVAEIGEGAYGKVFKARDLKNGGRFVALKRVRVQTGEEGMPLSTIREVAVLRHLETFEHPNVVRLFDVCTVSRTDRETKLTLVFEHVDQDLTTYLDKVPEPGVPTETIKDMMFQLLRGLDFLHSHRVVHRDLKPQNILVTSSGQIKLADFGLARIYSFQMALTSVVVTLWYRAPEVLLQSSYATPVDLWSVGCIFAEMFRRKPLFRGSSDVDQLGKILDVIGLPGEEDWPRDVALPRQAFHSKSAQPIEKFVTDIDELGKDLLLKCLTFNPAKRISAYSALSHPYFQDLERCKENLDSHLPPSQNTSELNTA
CDK6/Cyclin D3, sequence (P30281 whole entry partner): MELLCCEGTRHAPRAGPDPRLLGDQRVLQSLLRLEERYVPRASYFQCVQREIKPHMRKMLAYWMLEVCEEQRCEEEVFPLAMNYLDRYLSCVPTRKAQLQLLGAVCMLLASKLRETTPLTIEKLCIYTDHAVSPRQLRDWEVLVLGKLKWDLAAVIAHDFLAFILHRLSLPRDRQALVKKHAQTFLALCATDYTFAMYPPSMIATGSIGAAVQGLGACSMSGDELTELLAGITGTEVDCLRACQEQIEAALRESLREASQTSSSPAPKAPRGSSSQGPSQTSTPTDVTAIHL
CDK4/Cyclin D1, sequence (P11802 whole entry): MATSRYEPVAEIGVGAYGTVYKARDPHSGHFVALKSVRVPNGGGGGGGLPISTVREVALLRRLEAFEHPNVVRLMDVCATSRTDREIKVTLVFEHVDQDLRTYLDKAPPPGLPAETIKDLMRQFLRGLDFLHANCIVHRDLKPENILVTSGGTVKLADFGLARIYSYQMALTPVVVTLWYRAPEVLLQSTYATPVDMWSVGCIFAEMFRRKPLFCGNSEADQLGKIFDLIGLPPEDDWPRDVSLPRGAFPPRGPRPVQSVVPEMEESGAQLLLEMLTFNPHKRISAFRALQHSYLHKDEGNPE
CDK4/Cyclin D1, sequence (P24385 whole entry partner): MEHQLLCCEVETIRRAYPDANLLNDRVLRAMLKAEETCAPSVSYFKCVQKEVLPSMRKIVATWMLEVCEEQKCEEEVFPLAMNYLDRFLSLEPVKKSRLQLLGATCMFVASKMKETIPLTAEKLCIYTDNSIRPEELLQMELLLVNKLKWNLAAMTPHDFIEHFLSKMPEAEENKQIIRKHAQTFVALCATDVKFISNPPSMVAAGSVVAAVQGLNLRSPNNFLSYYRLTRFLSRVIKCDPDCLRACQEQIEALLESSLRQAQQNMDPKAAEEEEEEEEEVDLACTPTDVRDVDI

One may read the IC50 as the concentration that gives 50% inhibition. Take `CC(C)c1c(CO)cnc2ccc(-c3nc(N[C@@H]4CCOC[C@@H]4O)ncc3F)cc12` [Example 1, (3R,4R)-4-((5-fluoro-4-(3-(hydroxymethyl)-4-isopropylquinolin-6-yl)pyrimidin-2-yl)amino)tetrahydro-2H-pyran-3-ol]: the IC50 was found to be 107 nM at CDK6/Cyclin D3 and 7.9 nM on CDK4/Cyclin D1.

On to `CC(C)c1c(CN2CCOCC2)cnc2ccc(-c3nc(N[C@@H]4CCOC[C@@H]4O)ncc3F)cc12` [Example 2, (3R,4R)-4-((5-fluoro-4-(4-isopropyl-3-(morpholinomethyl)quinolin-6-yl)pyrimidin-2-yl)amino)tetrahydro-2H-pyran-3-ol], for which the IC50 at CDK6/Cyclin D3 was 456 nM; at CDK4/Cyclin D1, 21 nM.

With `CC(C)c1c(CN[C@@H]2CCCOC2)cnc2ccc(-c3nc(N[C@@H]4CCOC[C@@H]4O)ncc3F)cc12` [Example 3, (3R,4R)-4-((5-fluoro-4-(4-isopropyl-3-((((R)-tetrahydro-2H-pyran-3-yl)amino)methyl)quinolin-6-yl)pyrimidin-2-yl)amino)tetrahydro-2H-pyran-3-ol], the IC50 on CDK6/Cyclin D3 is 1100 nM; on CDK4/Cyclin D1, 16 nM.

Consider `CC(C)c1c(CN)cnc2ccc(-c3nc(N[C@@H]4CCOC[C@@H]4O)ncc3F)cc12` [Example 4, (3R,4R)-4-((4-(3-(aminomethyl)-4-isopropylquinolin-6-yl)-5-fluoropyrimidin-2-yl)amino)tetrahydro-2H-pyran-3-ol], for which the half-inhibitory concentration (IC50) at CDK6/Cyclin D3 turned out to be 190 nM; on CDK4/Cyclin D1, 2.6 nM.

For `CC(C)c1c(CN2CC(O)C2)cnc2ccc(-c3nc(N[C@@H]4CCOC[C@@H]4O)ncc3F)cc12` [Example 5, 1-((6-(5-fluoro-2-(((3R,4R)-3-hydroxytetrahydro-2H-pyran-4-yl)amino)pyrimidin-4-yl)-4-isopropylquinolin-3-yl)methyl)azetidin-3-ol], the values for the half-maximal inhibitory concentration (IC50) at CDK6/Cyclin D3 and on CDK4/Cyclin D1 were 1830 nM and 26 nM, respectively.

`CC(C)c1c(CN2CCC[C@H](C#N)C2)cnc2ccc(-c3nc(N[C@@H]4CCOC[C@@H]4O)ncc3F)cc12` [Example 6, (S)-1-((6-(5-fluoro-2-(((3R,4R)-3-hydroxytetrahydro-2H-pyran-4-yl)amino)pyrimidin-4-yl)-4-isopropylquinolin-3-yl)methyl)piperidine-3-carbonitrile]: the figures for the IC50 at CDK6/Cyclin D3 and on CDK4/Cyclin D1 were 273 nM and 7 nM, respectively.

Turning to `CC(C)c1c(CN2CCC[C@@H](C#N)C2)cnc2ccc(-c3nc(N[C@@H]4CCOC[C@@H]4O)ncc3F)cc12` [Example 7, (R)-1-((6-(5-fluoro-2-(((3R,4R)-3-hydroxytetrahydro-2H-pyran-4-yl)amino)pyrimidin-4-yl)-4-isopropylquinolin-3-yl)methyl)piperidine-3-carbonitrile], the figures for the half-inhibitory concentration (IC50) at CDK6/Cyclin D3 and on CDK4/Cyclin D1 were 544 nM and 24 nM, respectively.

Regarding `CC(C)c1c(CN2[C@H](C)COC[C@@H]2C)cnc2ccc(-c3nc(N[C@@H]4CCOC[C@@H]4O)ncc3F)cc12` [Example 8, (3R,4R)-4-((4-(3-(((3R,5S)-3,5-dimethylmorpholino)methyl)-4-isopropylquinolin-6-yl)-5-fluoropyrimidin-2-yl)amino)tetrahydro-2H-pyran-3-ol], the half-inhibitory concentration (IC50) on CDK6/Cyclin D3 came to 921 nM; on CDK4/Cyclin D1 it was 21 nM.

`CC(C)c1c(CN2[C@H](C)COC[C@H]2C)cnc2ccc(-c3nc(N[C@@H]4CCOC[C@@H]4O)ncc3F)cc12` [Example 9, (3R,4R)-4-((4-(3-(((3R,5R)-3,5-dimethylmorpholino)methyl)-4-isopropylquinolin-6-yl)-5-fluoropyrimidin-2-yl)amino)tetrahydro-2H-pyran-3-ol]: the half-inhibitory concentration (IC50) is 532 nM at CDK6/Cyclin D3 and 22 nM at CDK4/Cyclin D1.

As for `CC(C)c1c(CNC2CC2)cnc2ccc(-c3nc(N[C@@H]4CCOC[C@@H]4O)ncc3F)cc12` [Example 10, (3R,4R)-4-((4-(3-((cyclopropylamino)methyl)-4-isopropylquinolin-6-yl)-5-fluoropyrimidin-2-yl)amino)tetrahydro-2H-pyran-3-ol], the IC50 on CDK6/Cyclin D3 was 510 nM; on CDK4/Cyclin D1, 12 nM.

As to `CC(C)c1c(CN[C@H]2CCOC2)cnc2ccc(-c3nc(N[C@@H]4CCOC[C@@H]4O)ncc3F)cc12` [Example 11, (3R,4R)-4-((5-fluoro-4-(4-isopropyl-3-((((S)-tetrahydrofuran-3-yl)amino)methyl)quinolin-6-yl)pyrimidin-2-yl)amino)tetrahydro-2H-pyran-3-ol], the results for the half-maximal inhibitory concentration (IC50) at CDK6/Cyclin D3 and at CDK4/Cyclin D1 were 1270 nM and 16 nM, respectively.

`CC(C)c1c(C2(O)CCCC2)cnc2ccc(-c3nc(N[C@@H]4CCOC[C@@H]4O)ncc3F)cc12` [Example 12, (3R,4R)-4-((5-fluoro-4-(3-(1-hydroxycyclopentyl)-4-isopropylquinolin-6-yl)pyrimidin-2-yl)amino)tetrahydro-2H-pyran-3-ol]: the figures for the 50% inhibitory concentration (IC50) on CDK6/Cyclin D3 and at CDK4/Cyclin D1 were 300 nM and 5.5 nM, respectively.

For the molecule `CC(C)c1c(CN2[C@H](C)COC[C@@H]2C)cnc2c(F)cc(-c3nc(N[C@@H]4CCOC[C@@H]4O)ncc3F)cc12` [Example 13, (3R,4R)-4-((4-(3-(((3R,5S)-3,5-dimethylmorpholino)methyl)-8-fluoro-4-isopropylquinolin-6-yl)-5-fluoropyrimidin-2-yl)amino)tetrahydro-2H-pyran-3-ol], the 50% inhibitory concentration (IC50) on CDK6/Cyclin D3 was 287 nM; on CDK4/Cyclin D1, 7.6 nM.

Regarding `CC(C)c1c(CNC2CC(F)(F)C2)cnc2c(F)cc(-c3nc(N[C@@H]4CCOC[C@@H]4O)ncc3F)cc12` [Example 14, (3R,4R)-4-((4-(3-(((3,3-difluorocyclobutyl)amino)methyl)-8-fluoro-4-isopropylquinolin-6-yl)-5-fluoropyrimidin-2-yl)amino)tetrahydro-2H-pyran-3-ol], the 50% inhibitory concentration (IC50) on CDK6/Cyclin D3 was determined as 462 nM; on CDK4/Cyclin D1, 15 nM.

Regarding `CC(C)c1c(CN[C@@H]2CCCOC2)cnc2c(F)cc(-c3nc(N[C@@H]4CCOC[C@@H]4O)ncc3F)cc12` [Example 15, (3R,4R)-4-((5-fluoro-4-(8-fluoro-4-isopropyl-3-((((R)-tetrahydro-2H-pyran-3-yl)amino)methyl)quinolin-6-yl)pyrimidin-2-yl)amino)tetrahydro-2H-pyran-3-ol], the IC50 on CDK6/Cyclin D3 turned out to be 702 nM; at CDK4/Cyclin D1, 21 nM.

In the case of `CC(C)c1c(C2(O)CCCC2)cnc2c(F)cc(-c3nc(N[C@@H]4CCOC[C@@H]4O)ncc3F)cc12` [Example 16, (3R,4R)-4-((5-fluoro-4-(8-fluoro-3-(1-hydroxycyclopentyl)-4-isopropylquinolin-6-yl)pyrimidin-2-yl)amino)tetrahydro-2H-pyran-3-ol], the IC50 on CDK6/Cyclin D3 stood at 93 nM; on CDK4/Cyclin D1, 4.4 nM.

On to `CC(C)c1c(C(C)(C)O)cnc2c(F)cc(-c3nc(N[C@@H]4CCOC[C@@H]4O)ncc3Cl)cc12` [Example 17, (3R,4R)-4-((5-chloro-4-(8-fluoro-3-(2-hydroxypropan-2-yl)-4-isopropylquinolin-6-yl)pyrimidin-2-yl)amino)tetrahydro-2H-pyran-3-ol], for which the 50% inhibitory concentration (IC50) turned out to be 228 nM on CDK6/Cyclin D3 and 9 nM on CDK4/Cyclin D1.

Turning to `CC(C)c1c(C2(O)CCOCC2)cnc2c(F)cc(-c3nc(N[C@@H]4CCOC[C@@H]4O)ncc3Cl)cc12` [Example 18, (3R,4R)-4-((5-chloro-4-(8-fluoro-3-(4-hydroxytetrahydro-2H-pyran-4-yl)-4-isopropylquinolin-6-yl)pyrimidin-2-yl)amino)tetrahydro-2H-pyran-3-ol], the IC50 was 273 nM on CDK6/Cyclin D3 and 8.4 nM at CDK4/Cyclin D1.

With `CC(C)c1c(CN2[C@H](C)COC[C@@H]2C)cnc2c(F)cc(-c3nc(N[C@@H]4CCOC[C@@H]4O)ncc3Cl)cc12` [Example 21, (3R,4R)-4-((5-chloro-4-(3-(((3R,5S)-3,5-dimethylmorpholino)methyl)-8-fluoro-4-isopropylquinolin-6-yl)pyrimidin-2-yl)amino)tetrahydro-2H-pyran-3-ol], the figures for the IC50 on CDK6/Cyclin D3 and on CDK4/Cyclin D1 were 409 nM and 7.9 nM, respectively.

For the origin of these results see patent US20260242363A1, “SUBSTITUTED 6-(PYRIMIDIN-4-YL)QUINOLINE COMPOUNDS AS CYCLIN DEPENDENT KINASE INHIBITORS” (BeOne Medicines I GmbH, priority 2023, published 2026).
